Data set [1] is described as follows: Iron (II) chelating properties, ferrozine assay. The note with it: 100 μM, EDTA=100%, FIG. 2. The class given is biochemical. The method, then:
In an embodiment, AntiOxCINs iron (II) chelating properties were evaluated by the ferrozine assay using ethylenediaminetetracetic acid (EDTA) as reference.
In an embodiment, AntiOxCINs iron chelating properties were evaluated by the spectrophotometric ferrozine method performed in a multiplate reader (Powerwave XS Microplate Reader) of Bio-Tech instruments.
In an embodiment, the AntiOxCINs iron chelating properties were evaluated as follows: in each well, a solution of the test compound (100 μM) and ammonium iron (II) sulphate in ammonium acetate (20 μM) were added, incubated for 10 min and the absorbance was read at 562 nm. Then, a freshly prepared solution of ferrozine (5 mM) was added to each well (96 μM final concentration). After a new incubation at 37° C. for 10 min period, the absorbance of [Fe(ferrozine)3]^2+ complex was measured at 562 nm. Blank wells were run using DMSO instead of the test compounds. EDTA was used as a reference. All compounds were tested at a final concentration of 100 μM. The absorbance of the first reading was subtracted to the final values to abolish any absorbance due to the test compounds. Data are means±SEM of three independent experiments and are expressed as % of Fe(II) chelation (EDTA=100%).

For data set [2], the system named is rat liver mitochondria (RLM). The data set is described as follows: Mitochondrial transmembrane electric potential (ΔΨ) of RLM, safranine fluorescence. The class given is biochemical. The method, then:
(§1) In an embodiment, and as an example, AntiOxCINs and MitoQ toxicity effects on the mitochondrial bioenergetics, namely on RLM ΔΨ and mitochondrial respiration parameters, were measured. The […] represents the main component of the electrochemical gradient generated by mitochondrial respiration and accounts for more than 90% of the total available energy. For mitochondrial respiration assays, glutamate/malate (for complex I) and succinate (for complex II) were used as substrates. In addition, the mitochondrial oxidative phosphorylation coupling index, known as respiratory control ratio (RCR, state 3/state 4 respiration) and ADP/O index (the coupling between ATP synthesis and oxygen consumption) were also calculated. AntiOxCINs and MitoQ were tested at antioxidant-relevant concentrations, with 10 μM being the highest concentration.
(§2) In an embodiment, the evaluation of AntiOxCINs functional mitochondrial toxicity profile was performed in rat liver mitochondria (RLM). […] The protein concentration was determined by the biuret assay using BSA as a standard.
Then, 1 μM FCCP was added at the end of all experiments to depolarize mitochondria. ΔΨ was calculated using a calibration curve obtained when RLM were incubated in a K^+-free reaction medium containing 200 mM sucrose, 1 mM NaH2PO4, 10 mM Tris (pH 7.4) and 10 μM EGTA, supplemented with 0.4 μg valinomicin. […] “Repolarization” corresponded to the recovery of membrane potential after the complete phosphorylation of ADP added. Lag phase reflected the time required to phosphorylate the added ADP. […] Data are means±SEM of five independent experiments.

For data set [3], the system named is rat liver mitochondria (RLM). The data set is described as follows: Mitochondrial respiration of isolated RLM (Clark-type oxygen electrode). The format is biochemical. The protocol:
as §1, §2
In an embodiment, the evaluation of AntiOxCINs effect on mitochondrial respiration was performed as follows: the respiration of isolated RLM was evaluated polarographically with a Clark-type oxygen electrode, connected to a suitable recorder in a 1 mL thermostated water-jacketed chamber with magnetic stirring, at 37° C.^1. […] Increasing concentrations of AntiOxCINs (2.5-10 μM) were added to the reaction medium containing respiratory substrates glutamate/malate (10 mM and 5 mM respectively) or succinate (5 mM) and RLM (1 mg) and allowed to incubate for a 5 min period prior to the assay. State 2 was considered as the respiration during the 5 min incubation time with AntiOxCINs. […] State 4 was determined after ADP phosphorylation finished. Subsequent addition of oligomycin (2 μg/ml) inhibited ATP-synthase and originated the oligomycin-inhibition respiration state. Finally, 1 μM FCCP was added to induce uncoupled respiration.

In data set [4] the test system is rat liver mitochondria (RLM) membranes. The data set can be described thus: RLM lipid peroxidation, TBARS assay (FeSO4/H2O2/ascorbate). The format is biochemical. The note with it: 5 μM pre-incubation, FIG. 4A. The protocol:
In an embodiment, and as an example, AntiOxCINs antioxidant performance, on the protection of lipid peroxidation of RLM membranes was determined. Two different oxidative stressor agents, FeSO4/H2O2/ascorbate and ADP/FeSO4, and two end-points, TBARS production and oxygen-consumption, respectively, have been used. MitoQ was used as reference (FIGS. 4 and 5).
In an embodiment, the evaluation of AntiOxCINs functional mitochondrial toxicity profile was performed in rat liver mitochondria (RLM). RLM were prepared by tissue homogenization followed by differential centrifugations in ice-cold buffer containing 250 mM sucrose, 10 mM HEPES (pH 7.4), 1 mM EGTA, and 0.1% fat-free bovine serum albumin. […] The protein concentration was determined by the biuret assay using BSA as a standard.
In an embodiment, the effect of AntiOxCINs on RLM lipid peroxidation was measured by thiobarbituric acid reactive species (TBARS) assay as follows: RLM (2 mg protein/ml) were incubated in 0.8 mL medium containing 100 mM KCl, 10 mM Tris-HCl and pH 7.6, at 37° C., supplemented with 5 mM glutamate/2.5 mM malate as substrate. […] The fluorescence of aliquots (250 μL) of the organic layer was analyzed in a plate reader (λEx=515 nm; λEm=553 nm) for TBARS. […] Data are means±SEM of three independent experiments and are expressed as % of control (control=100%).

In data set [5] the test system is mitochondrial permeability transition pore (mPTP) of RLM. The data set can be described thus: Mitochondrial permeability transition pore (mPTP) opening, mitochondrial swelling. The format is biochemical, rat. The note with it: 2.5, 5 and 10 μM, pre-incubated 5 min before calcium, FIG. 7A-C. The protocol: In an embodiment, the AntiOxCINs effects on mitochondrial permeability transition pore (mPTP) opening were evaluated. In general, less lipophilic AntiOxCINs had no effect on mPTP opening for all tested concentrations (FIG. 7A-C).
In an embodiment, the evaluation of AntiOxCINs functional mitochondrial toxicity profile was performed in rat liver mitochondria (RLM). RLM were prepared by tissue homogenization followed by differential centrifugations in ice-cold buffer containing 250 mM sucrose, 10 mM HEPES (pH 7.4), 1 mM EGTA, and 0.1% fat-free bovine serum albumin. After obtaining a crude mitochondrial preparation, pellets were washed twice and resuspended in washing buffer (250 mM sucrose and 10 mM HEPES, pH 7.4). The protein concentration was determined by the biuret assay using BSA as a standard.
In an embodiment, the effect of AntiOxCINs on mitochondrial permeability transition pore opening were measured as follows: mitochondrial swelling was estimated by measuring the alterations of light scattered from a mitochondrial suspension, as monitored spectrophotometrically at 540 nm. Increasing concentrations of AntiOxCINs (2.5-10 μM) were added to the reaction medium (200 mM sucrose, 1 mM KH2PO4, 10 mM Tris (pH 7.4), 5 mM succinate and 10 μM EGTA supplemented with 1.5 μM rotenone), in the presence of RLM (1 mg), and allowed to incubate for a 5 min period before the assay. The experiments were initiated by the addition of a suitable concentration of Ca^2+ (15-50 μM), titrated every day. […] The reaction was stirred continuously and the temperature maintained at 37° C. Data are means±SEM of three independent experiments and are expressed as Aabsorbance at 540 nm.

The values below come from patent US10913757B2, “Hydroxycinnamic derivatives, methods and uses thereof” (UNIVERSIDADE DO PORTO, priority 2016, dated 2021).

Consider `O=C(O)CN(CCN(CC(=O)O)CC(=O)O)CC(=O)O` [EDTA, ethylenediaminetetracetic acid, reference compound], for which the “iron (II) chelation” value in data set [1] is listed as “able to chelate all the iron in solution”.

On to `COC1=C(OC)C(=O)C(CCCCCCCCCC[P+](c2ccccc2)(c2ccccc2)c2ccccc2)=C(C)C1=O.CS(=O)(=O)[O-]` [MitoQ, [10-(4,5-dimethoxy-2-methyl-3,6-dioxo-1,4-cyclohexadien-1-yl)decyl]triphenylphosphonium methanesulfonate, reference compound], for which, in data set [1], the “iron (II) chelation” value is “not shared by MitoQ”. Further, the “repolarization after ADP-induced depolarization” value in data set [2] (10 μM) is “no repolarization occurred”. Moreover, the “ADP-induced depolarization (ΔΨ in - mV)” value is recorded as 173.0 ± 9.3 mV in data set [2] (glutamate/malate, 2.5 μM); 173.5 ± 8.9^ mV in data set [2] (glutamate/malate, 5 μM); 162.1 ± 6.0 mV in data set [2] (succinate, 2.5 μM); 157.0 ± 6.4^ mV in data set [2] (succinate, 5 μM). For the same compound, the “Lag Phase” value is 86.5 ± 5.6 s in data set [2] (glutamate/malate, 2.5 μM); 84.5 ± 7.1 s in data set [2] (glutamate/malate, 5 μM); 104.8 ± 9.9 s in data set [2] (succinate, 2.5 μM); 92.6 ± 19.4 s in data set [2] (succinate, 5 μM). Further, the “Maximum potential (ΔΨ in - mV)” value stood at 195.7 ± 10.8 mV in data set [2] (glutamate/malate, 2.5 μM); 188.3 ± 10.6 mV in data set [2] (glutamate/malate, 5 μM); 113.9 ± 10.2 mV in data set [2] (glutamate/malate, 10 μM); 181.6 ± 8.3 mV in data set [2] (succinate, 2.5 μM); 170.2 ± 8.1 mV in data set [2] (succinate, 5 μM); 108.9 ± 3.8 mV in data set [2] (succinate, 10 μM). Besides, the “Repolarization Potential (ΔΨ in - mV)” value in data set [2] (glutamate/malate, 2.5 μM) turned out to be 191.1 ± 11.7 mV; in data set [2] (glutamate/malate, 5 μM), 185.0 ± 9.4 mV; in data set [2] (succinate, 2.5 μM), 182.7 ± 9.1 mV; in data set [2] (succinate, 5 μM), 170.8 ± 8.7 mV. The “toxicity on the mitochondrial bioenergetic apparatus of RLM” value in data set [3] (2.5 μM, FIG. 6A and Table 2) was “caused toxicity”. Further, the “effect on respiratory states” value in data set [3] (concentrations up to 5 μM, glutamate/malate, FIG. 6A) is “increase on state 2, state 4 and oligomycin-inhibited respiration and a decrease on state 3 and FCCP-uncoupled respiration”. Besides, the ADP/O in data set [3] (glutamate/malate, 2.5 μM) was found to be 2.2 ± 0.1; in data set [3] (glutamate/malate, 5 μM), 1.9 ± 0.1; in data set [3] (glutamate/malate, 10 μM) it was 2.0 ± 0.2; in data set [3] (succinate, 2.5 μM), 1.3 ± 0.1; in data set [3] (succinate, 5 μM), 1.3 ± 0.1. Besides, the “RCR (respiratory control ratio, state 3/state 4)” value in data set [3] (glutamate/malate, 2.5 μM) was found to be 4.2 ± 0.6; in data set [3] (glutamate/malate, 5 μM) it was 2.7 ± 0.3; in data set [3] (glutamate/malate, 10 μM), 1.3 ± 0.1; in data set [3] (succinate, 2.5 μM), 2.6 ± 0.2; in data set [3] (succinate, 5 μM) it was 2.4 ± 0.2. In data set [3] (succinate, highest concentration tested, FIG. 6A), the “coupling of RLM” value was “completely uncoupled”. For the same compound, the “prevention of mitochondria lipid peroxidation (TBARS levels)” value in data set [4] is given as “effectively inhibited lipid peroxidation”. Further, in data set [5], the “effect on calcium-dependent mPTP opening” value is “no effect in mPTP induction”.
